Source: paper PMC9736855, “Discovery of 3-Amino-1H-pyrazole-Based Kinase Inhibitors to Illuminate the Understudied PCTAIRE Family” (International Journal of Molecular Sciences, 2022)
Several values for one entry are separate records, joined by “and”; a condition that tells them apart may be missing. Equal entries are not always repeated. Where two headings read alike, the source gives them in different places.

Columns and labels:
MARK3 = molecular target: T1, MARK3 (Homo sapiens, UniProt P27448); assay: DSF; format: binding
T1 construct: purchased in-house DSF panel (SGC Frankfurt)
T1 sequence (P27448 whole entry): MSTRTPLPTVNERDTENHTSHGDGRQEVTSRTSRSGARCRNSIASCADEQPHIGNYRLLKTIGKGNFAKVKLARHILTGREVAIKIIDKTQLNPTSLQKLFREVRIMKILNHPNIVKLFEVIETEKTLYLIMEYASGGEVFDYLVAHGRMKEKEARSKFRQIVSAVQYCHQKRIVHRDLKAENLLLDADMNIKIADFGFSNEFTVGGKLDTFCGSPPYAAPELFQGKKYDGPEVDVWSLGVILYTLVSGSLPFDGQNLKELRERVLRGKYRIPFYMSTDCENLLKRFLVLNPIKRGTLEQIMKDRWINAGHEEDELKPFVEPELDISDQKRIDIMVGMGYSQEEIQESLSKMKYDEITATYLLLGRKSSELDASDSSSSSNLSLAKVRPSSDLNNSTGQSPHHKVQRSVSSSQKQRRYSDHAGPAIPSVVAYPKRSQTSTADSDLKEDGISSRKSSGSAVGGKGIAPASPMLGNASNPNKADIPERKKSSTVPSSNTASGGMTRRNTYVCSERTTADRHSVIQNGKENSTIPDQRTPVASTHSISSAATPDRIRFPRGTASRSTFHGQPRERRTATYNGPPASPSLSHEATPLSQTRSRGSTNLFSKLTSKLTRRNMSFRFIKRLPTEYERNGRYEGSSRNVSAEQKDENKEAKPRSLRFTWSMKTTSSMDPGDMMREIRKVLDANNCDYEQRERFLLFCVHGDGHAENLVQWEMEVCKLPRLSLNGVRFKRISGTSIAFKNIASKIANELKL
Description: (§2) Recombinant protein kinase domains with a concentration of 2 μM were mixed with a 10 μM compound solution in DMSO, 20 mM HEPES, pH 7.5, and 500 mM NaCl. SYPRO Orange (5000×, Invitrogen) was added as a fluorescence probe (1 µl per mL). Subsequently, temperature-dependent protein unfolding profiles were measured, using the QuantStudio™ 5 realtime PCR machine (Thermo Fisher, Waltham, MA, USA). […] The temperature was raised with a step rate of 3 °C per minute. Data points were analyzed with the internal software (Thermal Shift SoftwareTM Version 1.4, Thermo Fisher) using the Boltzmann equation to determine the inflection point of the transition curve [56]. Differences in melting temperature are given as ΔTm values in °C. Measurements were performed in duplicates.

MST4 = molecular target: T2, MST4 (Homo sapiens, UniProt Q9P289); assay: DSF; format: binding
T2 construct: purchased in-house DSF panel (SGC Frankfurt)
T2 sequence (Q9P289 1-300): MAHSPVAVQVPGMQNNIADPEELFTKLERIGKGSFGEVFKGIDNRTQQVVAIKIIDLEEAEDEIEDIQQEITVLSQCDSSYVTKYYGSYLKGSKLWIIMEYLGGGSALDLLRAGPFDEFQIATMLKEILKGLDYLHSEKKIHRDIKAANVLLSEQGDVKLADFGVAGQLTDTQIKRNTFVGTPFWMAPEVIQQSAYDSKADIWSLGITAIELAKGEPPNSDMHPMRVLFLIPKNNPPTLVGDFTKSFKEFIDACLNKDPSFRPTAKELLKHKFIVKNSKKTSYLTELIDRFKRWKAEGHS
Description: as §2

CDK16/Cyclin Y = molecular target: T3, CDK16/Cyclin Y (Homo sapiens, UniProt Q00536); assay: NanoBRET; format: cell-based
T3 construct: Full-length kinases were obtained as plasmids cloned in frame with a terminal NanoLuc-fusion; CS1810C178 (CCNY); host or cells: HEK293T
T3 sequence (Q00536 whole entry, the tested form may be a part): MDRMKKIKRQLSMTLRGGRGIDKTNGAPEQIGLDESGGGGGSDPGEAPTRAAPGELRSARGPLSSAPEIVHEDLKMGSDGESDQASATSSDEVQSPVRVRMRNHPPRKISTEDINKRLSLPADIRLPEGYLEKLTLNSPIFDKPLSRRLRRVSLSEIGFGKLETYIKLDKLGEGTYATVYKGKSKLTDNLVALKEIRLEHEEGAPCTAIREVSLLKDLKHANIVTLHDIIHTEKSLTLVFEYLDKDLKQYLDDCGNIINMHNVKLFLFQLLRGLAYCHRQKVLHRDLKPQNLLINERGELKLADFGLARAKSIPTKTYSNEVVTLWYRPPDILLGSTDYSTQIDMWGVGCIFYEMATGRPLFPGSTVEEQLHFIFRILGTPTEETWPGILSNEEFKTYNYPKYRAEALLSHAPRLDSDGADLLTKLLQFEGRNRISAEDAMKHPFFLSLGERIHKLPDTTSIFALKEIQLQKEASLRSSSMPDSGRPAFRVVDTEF
T3 sequence (Q8ND76 2-341 partner limits assumed): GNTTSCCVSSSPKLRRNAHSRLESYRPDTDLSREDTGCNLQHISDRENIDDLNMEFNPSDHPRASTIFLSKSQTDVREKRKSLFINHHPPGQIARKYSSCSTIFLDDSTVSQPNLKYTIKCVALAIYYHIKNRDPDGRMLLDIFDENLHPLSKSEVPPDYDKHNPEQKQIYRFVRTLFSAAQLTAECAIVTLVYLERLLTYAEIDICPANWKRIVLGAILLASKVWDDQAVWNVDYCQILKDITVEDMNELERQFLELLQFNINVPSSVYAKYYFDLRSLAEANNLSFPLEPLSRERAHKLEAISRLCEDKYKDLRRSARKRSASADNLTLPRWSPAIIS
Method in brief: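 HEK293T cells transiently expressing full-length NanoLuc-fused kinase for 20 h, treated with serially diluted inhibitor plus tracer at its KD,app. Equilibrated 2 h at 37 °C/5% CO2 before reading BRET (450/610 nm). EC50 from tracer displacement by normalized 3-parameter fit.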

MERTK = molecular target: T4, MERTK (Homo sapiens, UniProt Q12866); assay: DSF; format: binding
T4 construct: purchased in-house DSF panel (SGC Frankfurt)
T4 sequence (Q12866 570-864): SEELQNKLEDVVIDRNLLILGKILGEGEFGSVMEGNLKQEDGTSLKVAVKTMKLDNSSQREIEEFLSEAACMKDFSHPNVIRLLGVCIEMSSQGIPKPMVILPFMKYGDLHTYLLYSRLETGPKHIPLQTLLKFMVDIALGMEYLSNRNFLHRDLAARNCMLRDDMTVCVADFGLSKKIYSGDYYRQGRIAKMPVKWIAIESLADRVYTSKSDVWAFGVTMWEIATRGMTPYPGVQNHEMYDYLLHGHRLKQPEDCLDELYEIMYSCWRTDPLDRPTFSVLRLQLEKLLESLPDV
Description: (§1) Measurements were performed in duplicates.

EPHB3 = molecular target: T5, EPHB3 (Homo sapiens, UniProt P54753); assay: DSF; format: binding
T5 construct: purchased in-house DSF panel (SGC Frankfurt)
T5 sequence (P54753 616-910): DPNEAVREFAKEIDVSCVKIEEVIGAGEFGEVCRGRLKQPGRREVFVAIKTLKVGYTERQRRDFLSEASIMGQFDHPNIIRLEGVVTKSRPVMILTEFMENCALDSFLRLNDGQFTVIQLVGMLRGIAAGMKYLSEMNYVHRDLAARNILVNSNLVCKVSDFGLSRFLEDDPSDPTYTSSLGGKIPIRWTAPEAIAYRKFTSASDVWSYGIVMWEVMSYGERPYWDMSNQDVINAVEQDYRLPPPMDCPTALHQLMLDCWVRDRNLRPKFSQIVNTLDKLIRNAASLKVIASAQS
Description: as §1

MARK4 = molecular target: T6, MARK4 (Homo sapiens, UniProt Q96L34); assay: DSF; format: binding
T6 construct: purchased in-house DSF panel (SGC Frankfurt)
T6 sequence (Q96L34 59-310): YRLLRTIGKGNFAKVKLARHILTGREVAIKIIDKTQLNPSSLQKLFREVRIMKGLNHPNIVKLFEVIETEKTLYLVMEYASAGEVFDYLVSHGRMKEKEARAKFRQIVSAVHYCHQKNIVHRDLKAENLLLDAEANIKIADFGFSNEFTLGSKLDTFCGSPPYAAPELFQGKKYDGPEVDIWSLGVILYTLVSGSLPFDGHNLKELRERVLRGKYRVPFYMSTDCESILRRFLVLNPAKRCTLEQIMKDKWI
Description: as §1

STK4 = molecular target: T7, STK4 (Homo sapiens, UniProt Q13043); assay: DSF; format: binding
T7 construct: purchased in-house DSF panel (SGC Frankfurt)
T7 sequence (Q13043 30-281): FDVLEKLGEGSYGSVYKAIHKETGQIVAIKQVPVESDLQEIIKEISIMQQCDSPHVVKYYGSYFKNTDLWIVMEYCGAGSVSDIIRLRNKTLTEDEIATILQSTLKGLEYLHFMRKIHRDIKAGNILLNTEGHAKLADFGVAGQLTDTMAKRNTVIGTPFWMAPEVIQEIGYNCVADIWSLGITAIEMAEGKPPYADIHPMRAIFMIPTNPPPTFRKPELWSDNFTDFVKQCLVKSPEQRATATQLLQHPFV
Description: as §1

PAK1 = molecular target: T8, PAK1 (Homo sapiens, UniProt Q13153); assay: DSF; format: binding
T8 construct: purchased in-house DSF panel (SGC Frankfurt)
T8 sequence (Q13153 249-545): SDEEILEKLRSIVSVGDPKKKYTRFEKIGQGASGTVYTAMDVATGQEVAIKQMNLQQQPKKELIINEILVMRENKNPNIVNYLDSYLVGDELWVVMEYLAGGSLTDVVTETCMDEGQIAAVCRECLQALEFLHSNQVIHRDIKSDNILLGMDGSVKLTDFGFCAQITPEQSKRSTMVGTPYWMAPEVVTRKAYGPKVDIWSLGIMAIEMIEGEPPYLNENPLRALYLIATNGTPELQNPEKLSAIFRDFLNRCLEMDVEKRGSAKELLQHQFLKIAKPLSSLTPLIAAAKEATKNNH
Description: as §1

BMP2K = molecular target: T9, BMP2K (Homo sapiens, UniProt Q9NSY1); assay: DSF; format: binding
T9 construct: purchased in-house DSF panel (SGC Frankfurt)
T9 sequence (Q9NSY1 38-345): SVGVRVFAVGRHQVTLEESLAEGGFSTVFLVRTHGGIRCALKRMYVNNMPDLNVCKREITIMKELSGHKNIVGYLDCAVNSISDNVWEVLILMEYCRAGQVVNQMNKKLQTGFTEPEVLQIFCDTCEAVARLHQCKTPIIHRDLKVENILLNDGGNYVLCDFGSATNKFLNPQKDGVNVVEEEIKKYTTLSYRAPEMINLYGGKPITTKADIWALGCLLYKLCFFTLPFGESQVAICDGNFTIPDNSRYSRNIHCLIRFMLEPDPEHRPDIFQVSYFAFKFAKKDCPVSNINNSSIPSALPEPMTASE
Description: as §1

MAPK14 = molecular target: T10, MAPK14 (Homo sapiens, UniProt Q16539); assay: DSF; format: binding
T10 construct: purchased in-house DSF panel (SGC Frankfurt)
T10 sequence (Q16539 whole entry): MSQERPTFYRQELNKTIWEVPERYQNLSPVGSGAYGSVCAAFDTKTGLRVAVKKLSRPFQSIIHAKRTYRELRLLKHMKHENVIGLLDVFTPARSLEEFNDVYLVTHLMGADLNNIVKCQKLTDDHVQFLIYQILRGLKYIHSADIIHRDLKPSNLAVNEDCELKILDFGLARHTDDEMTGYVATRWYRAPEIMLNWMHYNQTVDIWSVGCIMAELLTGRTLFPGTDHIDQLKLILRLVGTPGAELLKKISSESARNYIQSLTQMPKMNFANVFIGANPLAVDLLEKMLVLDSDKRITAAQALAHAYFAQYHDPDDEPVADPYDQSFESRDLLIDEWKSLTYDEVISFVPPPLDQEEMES
Description: as §2

MST3 = molecular target: T11, MST3 (Homo sapiens, UniProt Q9Y6E0); assay: DSF; format: binding
T11 construct: purchased in-house DSF panel (SGC Frankfurt)
T11 sequence (Q9Y6E0 4-301): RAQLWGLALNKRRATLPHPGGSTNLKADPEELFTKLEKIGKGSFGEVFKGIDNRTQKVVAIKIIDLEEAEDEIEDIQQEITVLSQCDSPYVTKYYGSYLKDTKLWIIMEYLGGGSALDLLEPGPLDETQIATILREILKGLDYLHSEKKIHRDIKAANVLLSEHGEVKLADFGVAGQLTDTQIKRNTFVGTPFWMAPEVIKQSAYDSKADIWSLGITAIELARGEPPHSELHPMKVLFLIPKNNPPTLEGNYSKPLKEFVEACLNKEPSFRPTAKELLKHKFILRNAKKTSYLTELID
Description: as §2

CLK1 = molecular target: T12, CLK1 (Homo sapiens, UniProt P49759); assay: DSF; format: binding;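 also: compound tested at 10 µM with 2 µM protein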
T12 construct: purchased in-house DSF panel (SGC Frankfurt)
T12 sequence (P49759 148-484): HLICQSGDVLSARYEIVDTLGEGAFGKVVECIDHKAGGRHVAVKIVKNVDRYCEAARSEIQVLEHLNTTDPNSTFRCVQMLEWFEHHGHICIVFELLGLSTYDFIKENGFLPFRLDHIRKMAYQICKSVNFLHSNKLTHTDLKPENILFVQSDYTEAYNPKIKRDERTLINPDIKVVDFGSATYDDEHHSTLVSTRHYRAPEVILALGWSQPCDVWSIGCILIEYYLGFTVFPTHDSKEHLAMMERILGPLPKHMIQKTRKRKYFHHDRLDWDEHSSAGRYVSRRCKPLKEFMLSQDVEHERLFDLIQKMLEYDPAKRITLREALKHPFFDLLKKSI
Description: as §2

UKL3 = molecular target: T13, UKL3 (Homo sapiens, UniProt Q6PHR2); assay: DSF; format: binding;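 also: compound tested at 10 µM with 2 µM protein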
T13 construct: purchased in-house DSF panel (SGC Frankfurt)
T13 sequence (Q6PHR2 1-279): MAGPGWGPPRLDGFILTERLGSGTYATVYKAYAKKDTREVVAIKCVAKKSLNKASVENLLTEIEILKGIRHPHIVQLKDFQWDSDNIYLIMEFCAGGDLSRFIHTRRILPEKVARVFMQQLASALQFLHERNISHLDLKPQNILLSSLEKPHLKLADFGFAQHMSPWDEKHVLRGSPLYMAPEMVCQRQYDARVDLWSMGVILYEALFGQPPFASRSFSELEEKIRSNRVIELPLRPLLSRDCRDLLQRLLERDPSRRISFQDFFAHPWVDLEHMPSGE
Description: as §2

AKT3 = molecular target: T14, AKT3 (Homo sapiens, UniProt Q9Y243); assay: DSF; format: binding
T14 construct: purchased in-house DSF panel (SGC Frankfurt)
T14 sequence (Q9Y243 148-479): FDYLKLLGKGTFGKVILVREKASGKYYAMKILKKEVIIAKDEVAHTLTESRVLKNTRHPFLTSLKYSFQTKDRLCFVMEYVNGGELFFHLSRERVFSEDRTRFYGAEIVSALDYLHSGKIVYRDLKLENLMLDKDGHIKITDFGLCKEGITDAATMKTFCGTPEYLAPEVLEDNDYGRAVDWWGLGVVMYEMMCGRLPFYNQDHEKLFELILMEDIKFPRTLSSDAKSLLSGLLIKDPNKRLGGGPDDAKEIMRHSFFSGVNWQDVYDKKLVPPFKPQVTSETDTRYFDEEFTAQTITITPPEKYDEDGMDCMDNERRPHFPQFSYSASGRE
Description: as §2

[1] = Figure 7, 11-point dose-response in duplicates, read-out: NanoBRET EC50 ± SEM against CDK16

Row | SMILES | ΔTm MARK3 (MARK3) [°C] | ΔTm MST4 (MST4) [°C] | EC50 (CDK16/Cyclin Y; [1]) | ΔTm MERTK (MERTK) [°C] | ΔTm EPHB3 (EPHB3) [°C] | ΔTm MARK4 (MARK4) [°C] | ΔTm STK4 (STK4) [°C] | ΔTm PAK1 (PAK1) [°C] | ΔTm BMP2K (BMP2K) [°C] | ΔTm MAPK14 (MAPK14) [°C] | ΔTm MST3 (MST3) [°C] | ΔTm CLK1 (CLK1) [°C] | ΔTm UKL3 (UKL3) [°C] | ΔTm AKT3 (AKT3) [°C] | EC50 (CDK16/Cyclin Y; CDK family profiling, Table S5, read-out: NanoBRET EC50 ± SEM CDK16/Cyclin Y) [nM]
1 | CC(C)OC(=O)c1cc(Nc2ccnc(NCc3ccc(NC(=O)OC(C)(C)C)cc3)n2)n[nH]1 [42d, isopropyl 3-((2-((4-((tert-butoxycarbonyl)amino)benzyl)amino)pyrimidin-4-yl)amino)-1H-pyrazole-5-carboxylate] | -0.4 | 0.1 | 44 nM | -0.8 | 1.3 | 0.3 | -0.5 | -1.1 | 1.4 | -0.5 | 0.8 | 0.0 | 2.3 | 0.6 | –
2 | CC(C)(C)OC(=O)Nc1ccc(CNc2nccc(Nc3cc(C(=O)OC(C)(C)C)[nH]n3)n2)cc1 [43d, tert-butyl 3-((2-((4-((tert-butoxycarbonyl)amino)benzyl)amino)pyrimidin-4-yl)amino)-1H-pyrazole-5-carboxylate] | -0.5 | -0.1 | 33 nM and 33.4 nM | -0.8 | 1.7 | -0.5 | -0.2 | -0.6 | 1.7 | -0.3 | -0.3 | -0.5 | 3.3 | 0.5 | –
3 | CN[C@@H]1C[C@H]2O[C@@](C)([C@@H]1OC)n1c3ccccc3c3c4c(c5c6ccccc6n2c5c31)C(=O)NC4 [staurosporine, reference compound] | – | – | – | 6.6 | 5.0 | 16.4 | 14.9 | 6.6 | 19.1 | – | – | – | – | – | –
4 | COC(=O)c1cc(Nc2ccnc(NCCOCCNC(=O)OC(C)(C)C)n2)[nH]n1 [21d, methyl 5-((2-((2-(2-((tert-butoxycarbonyl)amino)ethoxy)ethyl)amino)pyrimidin-4-yl)amino)-1H-pyrazole-3-carboxylate] | 2.5 | 0.7 | 1370 ± 306 nM | 1.9 | 0.8 | 1.7 | 1.6 | 1.1 | 5.7 | -0.3 | -0.3 | 1.8 | 0.9 | 0.3 | –
5 | N#CCc1ccc(Nc2nccc(Nc3cc(C4CC4)[nH]n3)n2)cc1 [compound 1, reference compound] | 8.1 | 7.1 | – | 4.4 | 5.1 | 8.2 | 9.6 | 3.3 | 18.8 | 2.5 | 9.3 | 12.2 | 8.3 | – | 14.6 ± 5.5
6 | COC(=O)c1cc(Nc2ccnc(NCc3ccc(NC(=O)OC(C)(C)C)cc3)n2)[nH]n1 [21i, methyl 5-((2-((4-((tert-butoxycarbonyl)amino)benzyl)amino)pyrimidin-4-yl)amino)-1H-pyrazole-3-carboxylate] | 1.5 | -0.7 | 380 nM | -0.1 | 0.4 | 3.3 | 2.2 | -0.4 | 2.8 | -0.6 | 0.1 | 1.3 | 0.3 | -0.3 | –
